In PMC7617285, “Dehydrogenase versus oxidase function: the interplay between substrate binding and flavin microenvironment” (ACS catalysis, 2025):

Tests used:
[1] = target: T1, VAD (vanillyl-alcohol dehydrogenase from Marinicaulis flavus) (Hyphococcus luteus, UniProt A0A2S7K3M2, P151L); assay: X-ray structure of soaked crystal; format: binding; conditions: 1 mM eugenol soak, 2 min; active site, flavin si side
T1 construct: gene CW354_13745; SUMO tag cleaved for crystals; covalent FAD on H387; dimer
T1 sequence (A0A2S7K3M2 entry or part of it P151L): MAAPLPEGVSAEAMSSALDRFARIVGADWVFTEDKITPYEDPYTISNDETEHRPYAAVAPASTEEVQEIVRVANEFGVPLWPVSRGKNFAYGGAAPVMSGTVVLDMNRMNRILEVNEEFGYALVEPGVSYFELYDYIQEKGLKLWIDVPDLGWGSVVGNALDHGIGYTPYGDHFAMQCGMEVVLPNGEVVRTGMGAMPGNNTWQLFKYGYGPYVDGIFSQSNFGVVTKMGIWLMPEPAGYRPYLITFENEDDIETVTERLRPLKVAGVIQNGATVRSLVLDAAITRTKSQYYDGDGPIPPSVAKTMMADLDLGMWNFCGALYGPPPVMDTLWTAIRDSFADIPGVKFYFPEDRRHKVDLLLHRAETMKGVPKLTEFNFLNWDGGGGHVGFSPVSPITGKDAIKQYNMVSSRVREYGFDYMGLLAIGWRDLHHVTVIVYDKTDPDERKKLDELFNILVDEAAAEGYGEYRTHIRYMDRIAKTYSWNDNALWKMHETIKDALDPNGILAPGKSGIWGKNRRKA

[2] = target: T2, nsVAO (vanillyl-alcohol oxidase from Novosphingobium sp.) (Novosphingobium sp., UniProt A0A3N9RU39); assay: X-ray structure; format: binding; conditions: non-covalently bound FAD
T2 construct: gene EH199_11270; SUMO tag cleaved for crystals; non-covalent FAD
T2 sequence (A0A3N9RU39 1-543): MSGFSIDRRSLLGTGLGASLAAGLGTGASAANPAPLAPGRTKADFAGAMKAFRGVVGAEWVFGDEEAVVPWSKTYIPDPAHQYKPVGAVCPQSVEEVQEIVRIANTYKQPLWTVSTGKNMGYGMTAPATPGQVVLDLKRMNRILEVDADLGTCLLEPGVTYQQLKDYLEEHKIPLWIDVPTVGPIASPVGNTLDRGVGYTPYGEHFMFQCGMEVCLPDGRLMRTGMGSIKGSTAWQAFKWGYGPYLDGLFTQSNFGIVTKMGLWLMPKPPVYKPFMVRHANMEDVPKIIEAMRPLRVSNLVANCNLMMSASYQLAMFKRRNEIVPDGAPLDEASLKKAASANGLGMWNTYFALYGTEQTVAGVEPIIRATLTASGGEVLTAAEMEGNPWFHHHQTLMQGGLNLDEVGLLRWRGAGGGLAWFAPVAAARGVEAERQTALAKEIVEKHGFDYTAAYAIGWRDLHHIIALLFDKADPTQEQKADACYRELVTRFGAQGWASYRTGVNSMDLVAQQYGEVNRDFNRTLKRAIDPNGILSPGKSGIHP

[3] = target: T3, VAD (vanillyl-alcohol dehydrogenase from Marinicaulis flavus) (Hyphococcus luteus, UniProt A0A2S7K3M2); assay: X-ray structure; format: binding; conditions: covalent (H387)
T3 construct: gene CW354_13745; SUMO tag cleaved for crystals; covalent FAD on H387; dimer
T3 sequence (A0A2S7K3M2 1-521): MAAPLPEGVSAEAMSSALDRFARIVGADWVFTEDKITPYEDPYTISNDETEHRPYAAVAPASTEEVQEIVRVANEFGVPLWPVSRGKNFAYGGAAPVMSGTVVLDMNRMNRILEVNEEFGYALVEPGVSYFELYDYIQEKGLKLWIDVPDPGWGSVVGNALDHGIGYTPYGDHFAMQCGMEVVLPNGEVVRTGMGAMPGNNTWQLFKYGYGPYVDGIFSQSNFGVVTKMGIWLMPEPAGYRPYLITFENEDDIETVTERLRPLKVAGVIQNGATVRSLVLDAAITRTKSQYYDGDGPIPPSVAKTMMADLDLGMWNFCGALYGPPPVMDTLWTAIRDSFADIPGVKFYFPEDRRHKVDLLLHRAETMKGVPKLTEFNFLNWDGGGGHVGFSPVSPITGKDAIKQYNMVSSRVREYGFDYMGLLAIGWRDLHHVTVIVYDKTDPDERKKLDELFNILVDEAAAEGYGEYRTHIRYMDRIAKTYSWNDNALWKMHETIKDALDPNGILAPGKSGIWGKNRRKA

[4] = target: T2, nsVAO (vanillyl-alcohol oxidase from Novosphingobium sp.); assay: X-ray structure of soaked crystal; format: binding; conditions: […] vanillyl alcohol soak, […] min; active site
[5] = target: T1, VAD (vanillyl-alcohol dehydrogenase from Marinicaulis flavus); assay: anaerobic stopped-flow reductive half-reaction; format: biochemical; conditions: 25 °C, 50 mM potassium phosphate pH 7.5, 150 mM NaCl, oxidized enzyme
Description: (§1) anaerobic stopped-flow reductive half-reaction on VAD (vanillyl-alcohol dehydrogenase from Marinicaulis flavus)

[6] = target: T3, VAD (vanillyl-alcohol dehydrogenase from Marinicaulis flavus); assay: anaerobic stopped-flow reductive half-reaction; format: biochemical; conditions: 25 °C, 50 mM potassium phosphate pH 7.5, 150 mM NaCl, oxidized enzyme
Description: as §1

How did the “X-ray structure of soaked crystal” value [1] turn out when `C=CCc1ccc(O)c(OC)c1` [Eugenol] was run?
The value was “P151L VAD-eugenol, wild type nsVAO-vanillyl alcohol and T181D nsVAO-vanillin complexes were prepared by soaking crystals”.

Which X-ray structure [2] does the source give for `Cc1cc2nc3c(=O)[nH]c(=O)nc-3n(C[C@H](O)[C@H](O)[C@H](O)COP(=O)(O)OP(=O)(O)OC[C@H]3O[C@@H](n4cnc5c(N)ncnc54)[C@H](O)[C@@H]3O)c2cc1C` [FAD] here?
The X-ray structure was “Its crystal structure confirms that FAD is non-covalently bound”.

And the X-ray structure [3]?
Its X-ray structure is “FAD carbons are in yellow, wild-type carbons in orange”.

How did the “X-ray structure of soaked crystal” value [4] turn out when `COc1cc(CO)ccc1O` [Vanillyl alcohol] was run?
The value was “Vanillyl alcohol bound to wild type nsVAO is shown with blue carbons”.

And the Kd [5]?
Its Kd is 1060 ± 80 µM.

What about the Kd [6] of the same molecule?
The Kd was 24.2 ± 3.3 µM.
